Source: PubChem BioAssay (NCI)
Several values for one entry are separate records, joined by “and”; a condition that tells them apart may be missing. Equal values may be shown once.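 Dose response: 5 concentrations. Exposure: 48 h. Format: 96-well plates. Endpoint: linear interpolation; highest concentration if not reached. GI50: concentration for 50% inhibition of growth. TGI: total growth inhibition.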

Key:
Assay in all cases: NCI anticancer screen, dose series, 48 h
[1] = test system: RXF 393 renal
[2] = test system: SNB-75 CNS
[3] = test system: HOP-62 NSCLC
[4] = test system: HOP-18 NSCLC
[5] = test system: IGROV1 ovarian
[6] = test system: DMS 114 small cell lung
[7] = test system: M19-MEL melanoma
[8] = test system: SN12C renal
[9] = test system: 786-0 renal
[10] = test system: KM20L2 colon
[11] = test system: ACHN renal
[12] = test system: K-562 leukemia
[13] = test system: SK-OV-3 ovarian
[14] = test system: U251 CNS
[15] = test system: SNB-78 CNS
[16] = test system: OVCAR-8 ovarian
[17] = test system: LOX IMVI melanoma
[18] = test system: DMS 273 small cell lung
[19] = test system: SK-MEL-28 melanoma
[20] = test system: OVCAR-3 ovarian
[21] = test system: HCT-116 colon
[22] = test system: CCRF-CEM leukemia
[23] = test system: OVCAR-4 ovarian
[24] = test system: SK-MEL-2 melanoma
[25] = test system: EKVX NSCLC
[26] = test system: LXFL 529 NSCLC
[27] = test system: SF-539 CNS
[28] = test system: RPMI-8226 leukemia
[29] = test system: DLD-1 colon
[30] = test system: UACC-62 melanoma
[31] = test system: HT29 colon
[32] = test system: A498 renal
[33] = test system: HCT-15 colon
[34] = test system: OVCAR-5 ovarian
[35] = test system: SF-268 CNS
[36] = test system: SW-620 colon
[37] = test system: NCI-H23 lung
[38] = test system: MALME-3M melanoma
[39] = test system: NCI-H522 lung
[40] = test system: XF 498 CNS
[41] = test system: MOLT-4 leukemia
[42] = test system: M14 melanoma
[43] = test system: KM12 colon
[44] = test system: SK-MEL-5 melanoma
[45] = test system: COLO 205 colon
[46] = test system: UACC-257 melanoma
[47] = test system: CAKI-1 renal
[48] = test system: UO-31 renal
[49] = test system: SF-295 CNS
[50] = test system: HOP-92 NSCLC
[51] = test system: A549 NSCLC
[52] = test system: SNB-19 CNS
[53] = test system: NCI-H460 lung
[54] = test system: NCI-H226 lung
[55] = test system: TK-10 renal
[56] = test system: HCC-2998 colon
[57] = test system: RXF-631 renal
[58] = test system: HL-60(TB) leukemia

## Cc1cc(C)nc(NS(=O)(=O)c2ccc(Nc3c4ccccc4nc4c(C(=O)Nc5ccc(S(N)(=O)=O)cc5)cccc34)cc2)n1
[1]
  TGI: > 100 µM
[2]
  TGI: 88.4 µM
[3]
  TGI: > 100 µM
[4]
  TGI: > 100 µM
[5]
  TGI: > 100 µM
[6]
  TGI: > 100 µM
[7]
  TGI: > 100 µM
[8]
  TGI: > 100 µM
[9]
  TGI: > 100 µM
[10]
  TGI: > 100 µM
[11]
  TGI: > 100 µM
[12]
  TGI: > 100 µM
[13]
  TGI: 75.5 µM
[14]
  TGI: > 100 µM
[15]
  TGI: > 100 µM
[16]
  TGI: > 100 µM
[17]
  TGI: > 100 µM
[18]
  TGI: > 100 µM
[19]
  TGI: > 100 µM
[20]
  TGI: > 100 µM
[21]
  TGI: > 100 µM
[22]
  TGI: > 100 µM
[23]
  TGI: > 100 µM
[24]
  TGI: > 100 µM
[25]
  TGI: 98.2 µM
[26]
  TGI: > 100 µM
[27]
  TGI: > 100 µM
[28]
  TGI: > 100 µM
[29]
  TGI: > 100 µM
[30]
  TGI: > 100 µM
[31]
  TGI: > 100 µM
[32]
  TGI: > 100 µM
[33]
  TGI: > 100 µM
[34]
  TGI: > 100 µM
[35]
  TGI: > 100 µM
[36]
  TGI: > 100 µM
[37]
  TGI: > 100 µM
[38]
  TGI: > 100 µM
[39]
  TGI: > 100 µM
[40]
  TGI: > 100 µM
[41]
  TGI: > 100 µM
[42]
  TGI: > 100 µM
[43]
  TGI: > 100 µM
[44]
  TGI: > 100 µM
[45]
  TGI: > 100 µM
[46]
  TGI: > 100 µM
[47]
  TGI: > 100 µM
[48]
  TGI: > 100 µM
[49]
  TGI: > 100 µM
[50]
  TGI: > 100 µM
[51]
  TGI: > 100 µM
[52]
  TGI: > 100 µM
[53]
  TGI: > 100 µM

## CC1=C(C(=O)Nc2ccc([N+](=O)[O-])cc2)C(c2ccco2)C(C(=O)Nc2ccc([N+](=O)[O-])cc2)=C(C)N1
[1]
  TGI: 60.3 µM
[2]
  TGI: > 100 µM
[3]
  TGI: 71.1 µM
[5]
  TGI: > 100 µM
[6]
  TGI: 43.2 µM
[7]
  TGI: 77.2 µM
[8]
  TGI: > 100 µM
[9]
  TGI: > 100 µM
[10]
  TGI: 60 µM
[11]
  TGI: 53.4 µM
[12]
  TGI: > 100 µM
[13]
  TGI: 62.9 µM
[14]
  TGI: > 100 µM
[15]
  TGI: 78.8 µM
[16]
  TGI: > 100 µM
[17]
  TGI: > 100 µM
[19]
  TGI: > 100 µM
[20]
  TGI: 88.3 µM
[22]
  TGI: 51.2 µM
[23]
  TGI: 46.7 µM
[24]
  TGI: 28 µM
[25]
  TGI: 73.6 µM
[26]
  TGI: > 100 µM
[27]
  TGI: > 100 µM
[28]
  TGI: 25.5 µM
[29]
  TGI: > 100 µM
[31]
  TGI: > 100 µM
[32]
  TGI: 82 µM
[54]
  TGI: > 100 µM
[34]
  TGI: > 100 µM
[35]
  TGI: > 100 µM
[36]
  TGI: > 100 µM
[37]
  TGI: 65.9 µM
[38]
  TGI: 55.1 µM
[39]
  TGI: 64.3 µM
[40]
  TGI: > 100 µM
[41]
  TGI: 52.5 µM
[42]
  TGI: > 100 µM
[43]
  TGI: 33.9 µM
[44]
  TGI: 93.4 µM
[45]
  TGI: 51.1 µM
[46]
  TGI: 98.5 µM
[47]
  TGI: 90.1 µM
[48]
  TGI: 60.1 µM
[49]
  TGI: > 100 µM
[55]
  TGI: 94.3 µM
[56]
  TGI: 47.9 µM
[50]
  TGI: 56.8 µM
[51]
  TGI: > 100 µM
[57]
  TGI: > 100 µM
[52]
  TGI: > 100 µM
[58]
  TGI: 26.5 µM
[53]
  TGI: > 100 µM

## CC(=O)O[C@H]1C(=O)[C@@]2(C)C([C@H](OC(=O)c3ccccc3)[C@]3(O)C[C@H](OC(=O)[C@H](O)[C@H](NC(=O)c4ccccc4)c4ccc(Cl)cc4)C(C)=C1C3(C)C)C1(OC(C)=O)CO[C@@H]1C[C@@H]2O (some centres undefined)
[1]
  GI50: 0.0187 µM
  TGI: 0.0644 µM and 0.0869 µM
[3]
  GI50: 0.0321 µM
  TGI: 26.5 µM
[6]
  TGI: 0.000649 µM
[9]
  TGI: 28.1 µM
[11]
  GI50: 1.66 µM
  TGI: > 100 µM
[12]
  TGI: 10.9 µM
[16]
  TGI: 61.9 µM
[17]
  TGI: 55.9 µM
[20]
  TGI: 0.0124 µM
[22]
  TGI: 12.9 µM
[23]
  TGI: 22.1 µM
[24]
  TGI: 0.0635 µM
[25]
  GI50: 0.204 µM
  TGI: 40.6 µM
[26]
  TGI: 26 µM
[27]
  TGI: 0.0026 µM
[28]
  TGI: 4.67 µM
[30]
  TGI: 0.00418 µM
[32]
  GI50: 0.2 µM
  TGI: 30.4 µM
[33]
  GI50: 0.0583 µM
  TGI: > 100 µM
[54]
  TGI: 0.0497 µM
[34]
  TGI: 0.0407 µM
[36]
  TGI: 18.3 µM
[38]
  TGI: 26.3 µM
[39]
  TGI: 0.00369 µM
[40]
  GI50: 0.0182 µM
[41]
  TGI: 2.36 µM
[42]
  TGI: 0.027 µM
[44]
  TGI: 1.76 µM
[45]
  TGI: 0.00842 µM
[47]
  TGI: 23.9 µM
[48]
  GI50: 1.97 µM
  TGI: 11 µM
[49]
  GI50: 0.0167 µM
[55]
  GI50: 0.0171 µM
  TGI: 14.4 µM
[56]
  TGI: 0.0105 µM
[51]
  TGI: 24.4 µM
[57]
  TGI: > 100 µM
[52]
  TGI: 45.3 µM

## O=C(O)CN(c1ccc(Cl)cc1)S(=O)(=O)c1ccccc1
[1]
  TGI: > 100 µM
[2]
  TGI: > 100 µM
[4]
  TGI: > 100 µM
[5]
  TGI: > 100 µM
[7]
  TGI: > 100 µM
[8]
  TGI: > 100 µM
[9]
  TGI: > 100 µM
[10]
  TGI: > 100 µM
[11]
  TGI: > 100 µM
[12]
  TGI: > 100 µM
[13]
  TGI: > 100 µM
[14]
  TGI: > 100 µM
[16]
  TGI: > 100 µM
[17]
  TGI: > 100 µM
[18]
  TGI: > 100 µM
[19]
  TGI: > 100 µM
[20]
  TGI: > 100 µM
[22]
  TGI: > 100 µM
[23]
  TGI: > 100 µM
[24]
  TGI: > 100 µM
[25]
  TGI: > 100 µM
[26]
  TGI: > 100 µM
[27]
  TGI: > 100 µM
[28]
  TGI: > 100 µM
[29]
  TGI: > 100 µM
[30]
  TGI: > 100 µM
[31]
  TGI: > 100 µM
[32]
  TGI: > 100 µM
[33]
  TGI: > 100 µM
[54]
  TGI: > 100 µM
[34]
  TGI: > 100 µM
[35]
  TGI: > 100 µM
[36]
  TGI: > 100 µM
[37]
  TGI: > 100 µM
[38]
  TGI: > 100 µM
[39]
  TGI: > 100 µM
[40]
  TGI: > 100 µM
[41]
  TGI: > 100 µM
[42]
  TGI: > 100 µM
[43]
  TGI: > 100 µM
[44]
  TGI: > 100 µM
[45]
  TGI: > 100 µM
[46]
  TGI: > 100 µM
[47]
  TGI: > 100 µM
[48]
  TGI: > 100 µM
[49]
  TGI: > 100 µM
[55]
  TGI: > 100 µM
[50]
  TGI: > 100 µM
[51]
  TGI: > 100 µM
[57]
  TGI: > 100 µM
[52]
  TGI: > 100 µM
[58]
  TGI: > 100 µM
[53]
  TGI: > 100 µM
